According to patent US20050031537A1, “Multifunctional COX-2 inhibitors” (priority 2002, published 2005):

What was measured:
[1] = system: tcf/lef/β-catenin-mediated promoter activation; test: TOPflash/FOPflash reporter assay for tcf/lef/β-catenin-mediated promoter activation (test (f)); assay type: cell-based, human; conditions: positive in 184B5, 184B5/HER, HCA7, HCT116, SKBR3 and BT474 cells; 24 h
Source text: Tcf/lef/β-catenin is a transcription factor complex that has been implicated in the regulation of genes involved in carcinogenesis. Increased tcf/lef/β-catenin-mediated gene expression has been linked to pathogenesis of colon cancer. Tcf/lef/β-catenin is described in Barker, N., et al, Adv. Cancer Res. 77, 1-24 (2000), the whole of which is incorporated herein by reference.
Cells (cell lines were 184B5, 184B5/HER, HCA7, HCT116, SKBR3 and BT474) were split into 6 well dishes and the next day were transiently transfected using 8 μg of LipofectAMlNE as per the manufacturer's instructions (Invitrogen, CA). 1.8 μg/dish of the wildtype Tcf/Lef reporter plasmid TOP flash or the mutant plasmid FOP flash was transfected into the cells and 0.2 μg of pSV-β-galactosidase. FOPflash differs from TOPflash by the mutation of its Tcf binding sites and serves to differentiate Tef/-catenin-mediated signaling from background (Upstate Biotechnology, Inc.). Cells were incubated overnight and were treated for 24 hours with either vehicle or test compound. Luciferase activity in the extracts was measured as described above and was corrected for background by subtraction of FOP-FLASH values from corresponding TOP-FLASH values.

[2] = system: HPV16 oncoproteins E6 and E7; test: Western and Northern blotting for HPV16 oncoproteins E6 and E7 (test (d)); assay type: cell-based, human papillomavirus; conditions: for Test (d) at least 50% downregulation of expression of HPV16 oncoproteins E6 and E7: positive in CaSki and SiHa cells
Experimental: We turn now to the criterion (d), that is at least 50% downregulation of expression of HPV16 oncoproteins E6 and E7.
Protein E6 and E7 which are expressed by HPV16 are believed to play a major role in carcinogenesis.
Western blotting and Northern blotting techniques were used to evaluate the expression of HPV E6 and E7 proteins. The cell lines used for the study were CaSKi and SiHa. The cells were treated with the test compound and cell lysate was obtained as described above and subjected to Western blotting analysis. The Western blotting analysis was performed as described above except anti-HPV 16 E7 antibody was used to probe the blot. The antibody was obtained from Santa Cruz Biotechnology, Inc. CA. For Northern blotting, total cellular RNA was isolated from cell monolayers using an RNA isolation kit from QIAGEN Inc. after treatment with the test compound. 10 μg of total cellular RNA per lane were electrophoresed in a formaldehyde-containing 1.2% agarose gel and transferred to nylon-supported membranes. After baking, membranes were prehybridized overnight in a solution containing 50% formamide, 5×sodium chloride-sodium phosphate-EDTA buffer (SSPE), 5×Denhardt's solution, 0.1% SDS and 100 μg/ml single-stranded salmon sperm DNA and then hybridized for 12 h at 42° C. with radiolabeled cDNA probes for human HPV16 E6 or E7 cDNAs and 18S rRNA. E6 and E7 (as described in Woodworth, C. D., Cancer Res. 16, 4397-4402 (2000)) and 18S rRNA probes were labeled with [^32P]-CTP by random priming. After hybridization, membranes were washed twice for 20 min at room temperature in 2×SSPE-0.1% SDS, twice for 20 min in the same solution at 55° C., and twice for 20 min in 0.1×SSPE-0.1% SDS at 55° C. Washed membranes were then subjected to autoradiography.

[3] = system: cyclin D1; test: Western blotting for expression of cyclin D1 (test (c)); assay type: cell-based, human; conditions: for Test (c) at least 50% downregulation of expression of cyclin D1: positive in 184B5, 184B5/HER cells, 24 h, Western blot
Experimental: Cyclin D1 is a protein that is important in regulating cell proliferation and is described in Ortega, S., et al, Biochimica et Biophysica Acta 1602, 73-87, (2002), the whole of which is incorporated by reference. […] Effects on expression of cyclin D1 was investigated in 184B5, 184B5/HER, HCA7, HCT116, SKBR3 and BT474 cells. The expression was assessed in cells after treatment with test compound or vehicle using 5×10^4 cells for 24 hours. Western blotting technique was used as follows to assess the expression levels of cyclin D1 in cells treated with the test compound and compared to levels in cells treated with vehicle alone. Cell lysates were prepared by treating cells with lysis buffer as described above. […] The resolved proteins were transferred onto nitrocellulose sheets. The nitrocellulose membrane was then incubated with anti-cyclin D1 antiserum. Secondary antibody to IgG conjugated to horseradish peroxidase was used. The various antisera were purchased from Santa Cruz Biotechnology, Inc., CA. The blots were probed with the Renaissance Western blot detection system according to the manufacturer's instructions (PerkinElmer Life Sciences, Boston, Mass.).

[4] = system: PTEN; test: Western and Northern blotting for expression of PTEN (test (e)); assay type: cell-based, human; conditions: for Test (e) at least 50% increase in expression of PTEN: positive in 184B5, 184B5/HER, HCA7, HCT116, SKBR3 and BT474 cells
Experimental: We turn now to criterion (e), i.e., at least 50% increase in expression of PTEN.
PTEN is a tumor suppressor that inhibits cell proliferation and induces programmed cell death. PTEN (also know as MMAC-1 or TEP-1) is described in Yamada, K. M., et al, Journal of Cell Science 114, 2375-2382, the whole of which is incorporated herein by reference.
Western blotting and Northern blotting techniques were used to evaluate the expression of PTEN. The expression of PTEN was evaluated in HCA7, HCT116, SKBR3, 184B5/HER, 184B5 and BT474 cells. 5×10^6cells were used to treat either vehicle alone or the test compound. The Western blotting analysis was performed as described above except anti-PTEN antibody was used to probe the blot. The antibody was obtained from Santa Cruz Biotechnology, Inc. CA. Northern blotting for PTEN was performed as described above and cDNA for PTEN as described in Tamura, M., et al, Science 5; 280 (5369):1614-1617 (1998), was used as a probe.

[5] = 184B5 cells, 24 hours, Western blotting

## CS(=O)(=O)c1ccc(-n2nc(C(F)(F)F)cc2-c2ccc(F)cc2)cc1 [SC-58125, 4-[5-(4-fluorophenyl)-3-(trifluoromethyl)-1H-pyrazol-1-yl]benzenemethylsulfone]
[1]
  Test (f) at least 50% inhibition of tcf/lef/β-catenin-mediated promoter activation: + (A plus sign in the table indicates a positive result, that is meeting the test for each cell line as indicated above as providing a positive result)
[2]
  Test (d) at least 50% downregulation of expression of HPV16 oncoproteins E6 and E7: + (A plus sign in the table indicates a positive result, that is meeting the test for each cell line as indicated above as providing a positive result)
[3]
  Test (c) at least 50% downregulation of expression of cyclin D1: + (A plus sign in the table indicates a positive result, that is meeting the test for each cell line as indicated above as providing a positive result)
[4]
  Test (e) at least 50% increase in expression of PTEN: + (A plus sign in the table indicates a positive result, that is meeting the test for each cell line as indicated above as providing a positive result)

## CCCCCCCOC(=O)Cc1c(C)n(C(=O)c2ccc(Cl)cc2)c2ccc(OC)cc12 [Indomethacin Analog 1, indomethacin heptyl ester]
[1]
  Test (f) at least 50% inhibition of tcf/lef/β-catenin-mediated promoter activation: + (A plus sign in the table indicates a positive result, that is meeting the test for each cell line as indicated above as providing a positive result)
[2]
  Test (d) at least 50% downregulation of expression of HPV16 oncoproteins E6 and E7: + (A plus sign in the table indicates a positive result, that is meeting the test for each cell line as indicated above as providing a positive result)
[4]
  Test (e) at least 50% increase in expression of PTEN: + (A plus sign in the table indicates a positive result, that is meeting the test for each cell line as indicated above as providing a positive result)

## COc1ccc(OC(=O)Cc2c(C)n(C(=O)c3ccc(Cl)cc3)c3ccc(OC)cc23)cc1 [Indomethacin Analog 3, 1-(p-chlorobenzoyl)-5-methoxy-2-methyl-1H-indole-3-acetic acid, 4-methoxyphenyl ester]
[1]
  Test (f) at least 50% inhibition of tcf/lef/β-catenin-mediated promoter activation: + (A plus sign in the table indicates a positive result, that is meeting the test for each cell line as indicated above as providing a positive result)

## NS(=O)(=O)c1ccc(-n2nc(C(F)(F)F)cc2-c2ccc(Cl)cc2)cc1 [SC-236, 4-[5-(4-chlorophenyl)-3-(trifluoromethyl)-1H-pyrazol-1-yl]benzenesulfonamide]
[1]
  Test (f) at least 50% inhibition of tcf/lef/β-catenin-mediated promoter activation: + (A plus sign in the table indicates a positive result, that is meeting the test for each cell line as indicated above as providing a positive result)
[2]; CaSki cells, 24 hours, 0-5.0 μM, Northern blotting
  decrease in amounts of E6 mRNA: greater than 50%
[2]; CaSki cells, 24 hours, 0-5.0 μM, high concentration, Western blot
  inhibition of HPV16 E7 protein: greater than 50%
[2]
  Test (d) at least 50% downregulation of expression of HPV16 oncoproteins E6 and E7: + (A plus sign in the table indicates a positive result, that is meeting the test for each cell line as indicated above as providing a positive result)
[3]; [5]
  decrease in level of cyclin D1: more than 50%
[3]
  Test (c) at least 50% downregulation of expression of cyclin D1: + (A plus sign in the table indicates a positive result, that is meeting the test for each cell line as indicated above as providing a positive result)
[4]; [5]
  increase in amounts of PTEN: > 100%
[4]
  Test (e) at least 50% increase in expression of PTEN: + (A plus sign in the table indicates a positive result, that is meeting the test for each cell line as indicated above as providing a positive result)

## Cc1ccc(-c2cc(C(F)(F)F)nn2-c2ccc(S(N)(=O)=O)cc2)cc1 [Celecoxib]
[1]
  Test (f) at least 50% inhibition of tcf/lef/β-catenin-mediated promoter activation: + (A plus sign in the table indicates a positive result, that is meeting the test for each cell line as indicated above as providing a positive result)
[2]
  Test (d) at least 50% downregulation of expression of HPV16 oncoproteins E6 and E7: + (A plus sign in the table indicates a positive result, that is meeting the test for each cell line as indicated above as providing a positive result)
[3]
  Test (c) at least 50% downregulation of expression of cyclin D1: + (A plus sign in the table indicates a positive result, that is meeting the test for each cell line as indicated above as providing a positive result)
[4]
  Test (e) at least 50% increase in expression of PTEN: + (A plus sign in the table indicates a positive result, that is meeting the test for each cell line as indicated above as providing a positive result)
